Test results as given in article PMC9147192, “Small Molecule Arranged Thermal Proximity Coaggregation (smarTPCA)—A Novel Approach to Characterize Protein–Protein Interactions in Living Cells by Similar Isothermal Dose–Responses” (International Journal of Molecular Sciences, 2022).

Assays:
MAPKAPK3 = MAPKAPK3 (Homo sapiens, UniProt Q16644); assay: TPP-CCR in living HL-60 cells; conditions: […] °C, TMT-MS
USP24 = USP24 (Homo sapiens, UniProt Q9UPU5); assay: TPP-CCR in living HL-60 cells
TRAPPC4 = TRAPPC4 (Homo sapiens, UniProt Q9Y296); assay: TPP-CCR in living HL-60 cells
MAPK14 = MAPK14 (Homo sapiens, UniProt Q16539); assay: TPP-TR in living HL-60 cells; type: cell-based; conditions: 20 μM, single set (no replicates)
Experimental: (§1) HL-60 cells (ATCC No. CCL-240) were expanded to about […] in 80 mL cell culture medium (RPMI-1640 supplemented with 10% (v/v) FBS, 1% (v/v) penicillin-streptomycin and 1% (v/v) L-glutamine solution) and divided into four aliquots (20 mL each, 25 million cells per flask). […] The same volume of DMSO was added to the remaining aliquot serving as the vehicle (DMSO) control. After incubation (1 h, 37 °C, 5% CO2, in cell culture CO2 incubator), the cell suspensions were transferred into 50 mL conical tubes, cell number and viability were determined, and after centrifugation (300 relative centrifugal force (rcf), 3 min, room temperature (r.t.)), the supernatants were completely removed and discarded. The cells were washed using 20 mL Dulbecco’s phosphate-buffered saline (PBS), respectively, by resuspension and centrifugation (300 rcf, 3 min, r.t.). After the complete removal of the supernatants, the cells were transferred into pre-weighed 2 mL Eppendorf tubes using 0.5 mL PBS (r.t.), respectively, for resuspending. After centrifugation (300 rcf, 3 min, r.t.) and removing as much as possible of the supernatants, the cell wet weights were determined.
(§2) The suspensions were shortly centrifuged (1 s or less) using a benchtop centrifuge that was equipped with an inset for PCR tubes to release trapped air and to achieve an even liquid level without pelleting the cells. The 100 µL cell suspensions were then temperature treated by a 7 min pre-incubation at r.t., a 3 min incubation at the following different temperatures in the PCR cycler (DNA Engine Tetrad 2, lid temperature 70 °C, gradient block 1: 36–55 °C, gradient block 2: 48–67 °C), and a 3 min post-incubation at r.t. in a metal heating block for uniform heat dissipation.
(§3) The cells were lysed by four freeze/thaw cycles consisting of thawing the samples (in a heat block set to 25 °C and shaking at 1250 rpm) accompanied by mixing them several times by inversion and then shock freezing them again in liquid nitrogen. The resulting lysates were kept cold (on ice or 4 °C) from then on. After centrifugation (20,000 rcf, 30 min, 4 °C) to pellet the cell debris together with precipitated and aggregated proteins, the supernatants were recovered and, after determining the total protein concentration (Pierce 660 nm Protein Assay, BSA as standard), the resulting cell extracts containing the fraction of soluble, non-denatured proteins were shock frozen in liquid nitrogen and stored at −80 °C.
(§4) For each sample set comprising ten temperature range samples, the same volume of the cell extracts containing the fraction of soluble, non-denatured proteins was used for further analysis. Volume calculation for 30 µg total protein was performed as described for SDS-PAGE and immunoblotting. The calculated volume was respectively transferred into 0.5 mL LoBind Eppendorf tubes and evaporated to dryness using vacuum centrifugation (SpeedVac concentrator, Eppendorf, Hamburg, Germany). The dried proteins were each reconstituted in 10 µL of SDS sample buffer (containing DTT) and incubated for 30 min at 50 °C with shaking (700 rpm). 1.111 µL 1 M iodoacetamide (IAA) was added to each sample (final 100 mM IAA), then the samples were mixed and incubated for 30 min at r.t. in the dark. Sample quality was controlled by SDS-PAGE/silver staining using 0.926 µL of each sample (2.5 µg on average for the two lowest temperature samples; 26-well 4–12% Bis-Tris polyacrylamide gels, Novex NuPAGE, Thermo Scientific; 15 min at 50 V, about 1.5 h at 200 V using the recommended MOPS running buffer).

MAPK3 = biological target: T1, MAPK3 (Homo sapiens, UniProt P27361); assay: TPP-TR in living HL-60 cells; type: cell-based; conditions: 20 μM, single set (no replicates)
T1 construct: endogenous in cells; host or cells: HL-60 (ATCC CCL-240)
Experimental: as §1, §2, §3, §4

MAPKAPK2p = assay: CETSA in living HL-60 cells, immunoblot; type: cell-based, Homo sapiens
Experimental: First, we conducted CETSA experiments according to Jafari et al.. […] Subsequent SDS-PAGE and immunoblotting were performed according to optimized conditions allowing for parallel detection of MAPK14, MAPKAPK2, MAPKAPK3, and GSK-3α (Supplementary Figure S1).
as §1, §2
The cells were lysed by four freeze/thaw cycles consisting of thawing the samples (in a heat block set to 25 °C and shaking at 1250 rpm) accompanied by mixing them several times by inversion and then shock freezing them again in liquid nitrogen. […]
For each sample set comprising either ten temperature range samples or ten compound concentration range samples, the same volume of the cell extracts containing the fraction of soluble, non-denatured proteins was used for further analysis. This volume was determined using the two lowest temperature samples (36.5 and 41.2 °C) per temperature range sample set so that they contained an average of 5 µg total protein (e.g., 2.78 µL for all temperature range samples of a sample set whose two lowest temperature samples contain an average of 1.8 mg/mL protein). […]

MAPKAPK2 = test system: MAPKAPK2; set-up: method as in PMID 22037378; conditions: cited from earlier work
MYLK = test system: MYLK; set-up: method as in PMID 22037378; conditions: cited from earlier work
NAPG = NAPG (Homo sapiens, UniProt Q99747); assay: TPP-CCR in living HL-60 cells
[1] = living HL-60 cells, […] °C, TMT-MS
[2] = living HL-60 cells, 20 µM inhibitor

Chain of NAPG (Q99747 whole entry): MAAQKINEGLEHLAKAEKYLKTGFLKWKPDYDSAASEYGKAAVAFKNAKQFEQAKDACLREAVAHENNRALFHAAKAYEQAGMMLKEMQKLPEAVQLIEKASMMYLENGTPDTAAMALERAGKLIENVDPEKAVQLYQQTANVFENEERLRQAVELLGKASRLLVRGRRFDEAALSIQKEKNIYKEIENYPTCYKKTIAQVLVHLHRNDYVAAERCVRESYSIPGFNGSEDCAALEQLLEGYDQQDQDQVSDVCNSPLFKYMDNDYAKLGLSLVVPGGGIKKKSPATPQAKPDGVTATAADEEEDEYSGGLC
Chain of TRAPPC4 (Q9Y296 whole entry): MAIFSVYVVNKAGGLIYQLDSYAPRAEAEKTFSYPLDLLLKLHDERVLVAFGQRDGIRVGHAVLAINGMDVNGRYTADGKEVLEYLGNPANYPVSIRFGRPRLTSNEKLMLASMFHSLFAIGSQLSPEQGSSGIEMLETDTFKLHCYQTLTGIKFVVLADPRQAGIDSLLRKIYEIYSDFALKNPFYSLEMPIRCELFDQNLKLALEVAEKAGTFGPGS
Chain of USP24 (Q9UPU5 whole entry): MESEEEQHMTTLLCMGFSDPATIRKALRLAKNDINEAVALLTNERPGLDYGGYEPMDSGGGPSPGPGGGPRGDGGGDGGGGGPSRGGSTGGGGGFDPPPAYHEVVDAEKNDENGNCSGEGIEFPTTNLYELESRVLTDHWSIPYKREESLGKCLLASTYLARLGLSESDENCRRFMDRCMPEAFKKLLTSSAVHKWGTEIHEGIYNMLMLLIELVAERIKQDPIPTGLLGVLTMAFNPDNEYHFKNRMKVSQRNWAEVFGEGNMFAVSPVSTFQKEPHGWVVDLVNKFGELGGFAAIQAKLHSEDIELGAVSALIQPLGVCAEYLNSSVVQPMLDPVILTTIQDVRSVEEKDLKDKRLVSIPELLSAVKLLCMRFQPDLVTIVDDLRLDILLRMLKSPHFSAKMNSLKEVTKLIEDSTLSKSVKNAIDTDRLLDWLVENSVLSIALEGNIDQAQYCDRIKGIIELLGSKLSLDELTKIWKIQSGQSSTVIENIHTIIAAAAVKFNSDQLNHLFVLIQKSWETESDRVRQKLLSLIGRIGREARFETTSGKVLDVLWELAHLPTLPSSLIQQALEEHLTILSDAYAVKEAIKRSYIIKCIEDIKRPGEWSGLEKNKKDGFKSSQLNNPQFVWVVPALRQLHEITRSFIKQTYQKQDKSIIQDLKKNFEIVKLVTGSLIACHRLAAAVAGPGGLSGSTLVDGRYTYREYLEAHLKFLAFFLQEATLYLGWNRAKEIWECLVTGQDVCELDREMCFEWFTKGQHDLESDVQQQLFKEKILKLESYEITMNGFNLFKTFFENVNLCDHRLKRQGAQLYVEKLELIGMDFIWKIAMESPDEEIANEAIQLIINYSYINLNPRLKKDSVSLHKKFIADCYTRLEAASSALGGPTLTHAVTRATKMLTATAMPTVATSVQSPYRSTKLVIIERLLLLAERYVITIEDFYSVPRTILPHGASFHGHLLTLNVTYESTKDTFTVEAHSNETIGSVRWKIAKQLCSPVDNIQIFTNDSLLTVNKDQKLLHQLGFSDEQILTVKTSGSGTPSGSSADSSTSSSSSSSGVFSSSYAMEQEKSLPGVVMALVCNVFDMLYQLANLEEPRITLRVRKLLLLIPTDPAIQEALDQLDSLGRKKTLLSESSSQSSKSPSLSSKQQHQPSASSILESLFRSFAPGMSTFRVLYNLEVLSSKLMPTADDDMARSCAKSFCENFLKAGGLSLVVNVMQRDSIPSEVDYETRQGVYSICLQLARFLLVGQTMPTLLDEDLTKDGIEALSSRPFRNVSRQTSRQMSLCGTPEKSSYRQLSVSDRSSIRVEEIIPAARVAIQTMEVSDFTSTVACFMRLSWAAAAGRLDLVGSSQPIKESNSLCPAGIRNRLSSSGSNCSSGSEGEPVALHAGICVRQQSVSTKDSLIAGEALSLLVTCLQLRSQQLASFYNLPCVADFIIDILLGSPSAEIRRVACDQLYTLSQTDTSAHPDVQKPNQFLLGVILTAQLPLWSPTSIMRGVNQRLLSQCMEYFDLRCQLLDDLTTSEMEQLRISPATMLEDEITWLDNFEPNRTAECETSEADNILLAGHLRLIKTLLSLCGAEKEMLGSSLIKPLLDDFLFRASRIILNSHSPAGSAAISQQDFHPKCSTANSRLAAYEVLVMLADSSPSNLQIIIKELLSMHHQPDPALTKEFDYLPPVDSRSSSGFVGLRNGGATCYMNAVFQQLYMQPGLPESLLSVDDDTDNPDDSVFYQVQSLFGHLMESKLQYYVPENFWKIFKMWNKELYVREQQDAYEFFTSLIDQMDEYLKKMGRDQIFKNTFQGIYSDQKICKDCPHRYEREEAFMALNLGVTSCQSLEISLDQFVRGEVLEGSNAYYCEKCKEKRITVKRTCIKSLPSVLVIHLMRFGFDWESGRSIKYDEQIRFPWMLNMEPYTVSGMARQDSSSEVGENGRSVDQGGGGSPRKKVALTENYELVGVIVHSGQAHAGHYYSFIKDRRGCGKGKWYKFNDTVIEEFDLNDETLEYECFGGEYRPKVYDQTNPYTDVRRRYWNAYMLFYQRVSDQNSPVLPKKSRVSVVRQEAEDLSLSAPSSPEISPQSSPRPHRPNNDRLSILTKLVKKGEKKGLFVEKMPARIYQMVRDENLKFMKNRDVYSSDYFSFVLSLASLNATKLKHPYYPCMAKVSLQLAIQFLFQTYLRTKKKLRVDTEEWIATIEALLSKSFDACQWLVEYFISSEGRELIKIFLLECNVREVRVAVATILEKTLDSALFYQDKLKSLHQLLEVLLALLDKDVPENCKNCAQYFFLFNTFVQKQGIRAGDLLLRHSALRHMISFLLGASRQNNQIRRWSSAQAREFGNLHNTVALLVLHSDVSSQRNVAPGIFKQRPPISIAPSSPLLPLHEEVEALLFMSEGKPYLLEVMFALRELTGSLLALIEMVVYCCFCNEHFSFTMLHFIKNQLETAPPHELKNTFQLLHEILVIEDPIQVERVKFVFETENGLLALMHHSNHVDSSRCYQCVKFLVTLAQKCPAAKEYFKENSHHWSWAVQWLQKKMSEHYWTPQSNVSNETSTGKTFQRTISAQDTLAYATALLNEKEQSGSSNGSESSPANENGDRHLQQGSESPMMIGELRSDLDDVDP
T1 sequence (P27361 whole entry): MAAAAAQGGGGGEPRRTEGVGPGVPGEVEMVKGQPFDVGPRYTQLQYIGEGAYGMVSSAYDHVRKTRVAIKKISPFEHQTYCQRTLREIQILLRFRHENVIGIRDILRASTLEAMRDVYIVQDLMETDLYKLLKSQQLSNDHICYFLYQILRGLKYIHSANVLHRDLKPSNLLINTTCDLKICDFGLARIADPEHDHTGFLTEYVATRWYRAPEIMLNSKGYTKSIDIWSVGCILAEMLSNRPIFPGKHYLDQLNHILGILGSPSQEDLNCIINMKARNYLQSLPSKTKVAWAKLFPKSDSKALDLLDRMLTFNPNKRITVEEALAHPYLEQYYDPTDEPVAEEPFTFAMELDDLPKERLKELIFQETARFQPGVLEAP
Chain of MAPK14 (Q16539 whole entry): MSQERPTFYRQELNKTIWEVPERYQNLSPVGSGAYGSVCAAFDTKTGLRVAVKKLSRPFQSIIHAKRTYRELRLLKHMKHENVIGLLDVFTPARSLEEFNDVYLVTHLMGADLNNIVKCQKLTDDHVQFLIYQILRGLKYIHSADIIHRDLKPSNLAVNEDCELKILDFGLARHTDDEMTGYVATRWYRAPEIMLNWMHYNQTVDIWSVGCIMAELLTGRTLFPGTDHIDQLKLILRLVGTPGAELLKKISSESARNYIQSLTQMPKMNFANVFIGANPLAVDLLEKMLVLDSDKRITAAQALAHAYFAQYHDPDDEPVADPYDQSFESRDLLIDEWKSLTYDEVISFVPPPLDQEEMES
Chain of MAPKAPK3 (Q16644 whole entry): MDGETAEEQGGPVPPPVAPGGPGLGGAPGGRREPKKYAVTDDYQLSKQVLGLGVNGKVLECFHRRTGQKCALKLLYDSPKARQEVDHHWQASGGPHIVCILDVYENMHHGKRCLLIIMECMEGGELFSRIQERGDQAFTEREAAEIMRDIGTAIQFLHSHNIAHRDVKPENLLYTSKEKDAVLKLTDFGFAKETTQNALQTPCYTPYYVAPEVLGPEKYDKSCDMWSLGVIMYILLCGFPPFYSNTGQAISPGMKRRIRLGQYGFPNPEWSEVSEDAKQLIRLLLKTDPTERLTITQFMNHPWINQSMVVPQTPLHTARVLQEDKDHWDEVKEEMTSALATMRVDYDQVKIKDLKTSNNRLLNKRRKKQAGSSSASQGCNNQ
Chain of MAPKAPK3 (Q16539 2-360 partner limits assumed): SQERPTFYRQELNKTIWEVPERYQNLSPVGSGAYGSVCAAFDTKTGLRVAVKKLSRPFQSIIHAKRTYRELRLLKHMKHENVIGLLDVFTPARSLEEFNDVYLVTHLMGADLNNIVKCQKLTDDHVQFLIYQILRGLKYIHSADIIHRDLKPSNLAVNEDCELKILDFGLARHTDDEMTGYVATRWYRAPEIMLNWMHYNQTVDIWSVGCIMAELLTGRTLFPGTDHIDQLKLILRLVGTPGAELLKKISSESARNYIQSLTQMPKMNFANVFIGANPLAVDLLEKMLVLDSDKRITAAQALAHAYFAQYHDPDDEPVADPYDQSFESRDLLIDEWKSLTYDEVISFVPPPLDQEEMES

## Cn1c(NC[C@@H](N)Cc2ccccc2)nc(-c2ccncc2)c(-c2ccc3ccccc3c2)c1=O [AMG-548]
MAPKAPK3
  Hill slope (MAPKAPK3): 0.68
USP24
  EC50: 2.69 nM
USP24; [1]
  Hill slope (USP24): 0.71
TRAPPC4
  EC50: 407 nM
TRAPPC4; [1]
  Hill slope (TRAPPC4): 0.43
MAPK14
  thermal stabilization in melting curves (MAPK14): thermal stabilizations

## Cc1cnc(Nc2ccc(F)cc2Cl)nc1-c1c[nH]c(C(=O)N[C@H](CO)c2cccc(Cl)c2)c1 [ERK 11e]
MAPK3
  thermal stabilization in melting curves (MAPK3): thermal stabilization
MAPKAPK2p; MAPKAPK2p, living cells
  Tm: 47.18 °C
  ΔTm to DMSO: -1.07 °C
MAPKAPK2p; [2]
  Tm (MAPKAPK2p): 47.18 °C
  ΔTm to DMSO (MAPKAPK2p): −1.07 °C

## C[S+]([O-])c1ccc(-c2nc(-c3ccncc3)c(-c3ccc(F)cc3)[nH]2)cc1 (stereo not drawn) [SB203580]
MAPKAPK2
  activity towards MAPKAPK2: inactivity
MYLK
  activity towards MYLK: inactivity
NAPG
  EC50: 1.95 nM
NAPG; [1]
  Hill slope (NAPG): 0.24
